According to patent publication US20120214847A1, “2-[1-PHENYL-5-HYDROXY-4a-SUBSTITUTED-HEXAHYDROCYCLOPENTA[F]INDAZOL-5-YL]ETHYL PHENYL DERIVATIVES AS GLUCOCORTICOID RECEPTOR LIGANDS” (Merck Sharp & Dohme Corp., priority 2009, published 2012):
pEC50: −log10 of the molar value. Like-named read-outs stand apart in the source and are kept apart here.

Target: T1, human GR (Homo sapiens, UniProt P04150)
T1 construct: naturally expresses the human GR; endogenous in cells
T1 sequence (P04150 1-777): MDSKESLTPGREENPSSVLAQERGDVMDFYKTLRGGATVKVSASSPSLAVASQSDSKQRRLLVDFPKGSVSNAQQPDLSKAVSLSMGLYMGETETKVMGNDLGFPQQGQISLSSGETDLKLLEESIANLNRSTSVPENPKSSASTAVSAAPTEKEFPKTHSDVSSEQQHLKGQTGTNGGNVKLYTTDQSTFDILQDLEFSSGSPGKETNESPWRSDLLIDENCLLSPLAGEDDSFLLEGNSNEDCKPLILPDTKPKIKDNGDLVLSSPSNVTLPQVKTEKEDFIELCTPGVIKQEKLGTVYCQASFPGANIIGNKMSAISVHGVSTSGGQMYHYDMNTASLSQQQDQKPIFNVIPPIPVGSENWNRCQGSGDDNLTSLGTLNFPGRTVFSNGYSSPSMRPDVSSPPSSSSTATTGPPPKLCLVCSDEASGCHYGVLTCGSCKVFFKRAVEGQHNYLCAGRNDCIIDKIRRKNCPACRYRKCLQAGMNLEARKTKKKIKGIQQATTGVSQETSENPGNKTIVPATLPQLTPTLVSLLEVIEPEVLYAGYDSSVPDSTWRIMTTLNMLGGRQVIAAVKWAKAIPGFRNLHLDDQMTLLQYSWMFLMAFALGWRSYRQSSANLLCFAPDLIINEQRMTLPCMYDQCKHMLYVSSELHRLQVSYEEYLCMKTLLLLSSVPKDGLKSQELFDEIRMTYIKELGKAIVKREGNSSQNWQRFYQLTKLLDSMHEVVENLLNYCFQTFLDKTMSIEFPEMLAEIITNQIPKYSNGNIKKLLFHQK
Experiment: Trans-activation modulation of glucocorticoid receptor (GRAMMER), MMTV-LUC reporter in A549 cells
Assay type: cell-based
Settings: for Emax: Emax relative to the activity obtained with 300 nM dexamethasone, read-out: Transactivation A549 Cells Grammer Emax (%); for pEC50: IP = inflection point, read-out: Transactivation A549 Cells Grammer IP
Excerpt: Trans-Activation Modulation of Glucocorticoid Receptor (GRAMMER)
This assay assesses the ability of test compounds to control transcription from the MMTV-LUC reporter gene in lung adenocarcinoma A549 cells or HeLa cells, a human […] cell line that naturally expresses the human GR. The assay measures induction of a modified MMTV LTR/promoter linked to the LUC reporter gene.
The routine transient assay consists of plating 7,000-25,000 cells/well of a white, clear-bottom 96-well plate. Alternatively, 384-well plates can be used at a cell concentration of 10,000/well. The media that the cells are plated in is “exponential growth medium” which consists of phenol red-free RPMI1640 containing 10% FBS, 4 mM L-glutamine, 20 mM HEPES, 10 ug/mL human insulin, and 20 ug/mL gentamicin. Incubator conditions are 37° C. and 5% C02. The transfection is done in batch mode. The cells are trypsinized and counted to the right cell number in the proper amount of fresh media. It is then gently mixed with the FuGene6/DNA 25 mix and plated onto the 96 or 384-well plate, all the wells receive 100 uL or 40 uL, respectively, of medium+lipid/DNA complex then incubated 37° C. overnight. The transfection cocktail consists of serum-free OptiMEM, FuGene6 reagent and DNA. The manufacturer's (Roche Biochemical) protocol for cocktail setup is as follows: The lipid to DNA ratio is approximately 2.5:1 and the incubation time is 20 min at room temperature. Sixteen to 24 h after transfection, the cells are treated with dexamethasone to a final concentration of 10 nM as well as the compound of interest, such that final DMSO (vehicle) concentration is equal to or less than 1%. Each plate also contains samples that are treated with 10 nM dexamethasone alone, which is used as the 100% activity control. The cells are exposed to the compounds for 24 h. After 24 h, the cells are lysed by a Promega cell culture lysis buffer for approximately 30 min and then the luciferase activity in the extracts is assayed in the 96-well format luminometer. In 384 well format, Steady-Glo (Promega) or Steady-Lite (PerkinElmer) can be used by adding an equal volume of reagent to the media present in each well. Activity induced by 10 nM dexamethasone alone is set at 100% activity. Antagonist activity is calculated by determining the decrease in dexamethasone-induced activity in response to compound treatment relative to samples that were treated with dexamethasone alone. Results are expressed as % inhibition of 10 nM dexamethasone activity or as fold of 10 nM dexamethasone activity. This transactivation assay can be performed in an agonist and antagonist mode to identify these different activities.
Activity of test compounds is calculated as the Emax relative to the activity obtained with 300 nM dexamethasone. […] The exemplified tissue selective glucocorticoid receptor modulators of the present invention display agonist activity in this assay of greater than 5% and less than 100%, and maximal transactivation activity less then maximal transrepression activity. The action of compounds is also tested in an antagonist mode (Anti-GRAMMER) in which the cells are treated with medium containing an agonist such as 10 nM DEX and the ability of agents to inhibit the activation by an agonist is measured.

CC[C@]12Cc3cnn(-c4ccc(F)cc4)c3C=C1CC[C@@]2(O)CCc1ccccc1CCC(N)=O [Example 22, 3-(2-{2-[(4aS,5R)-4a-Ethyl-1-(4-fluorophenyl)-5-hydroxy-1,4,4a,5,6,7-hexahydrocyclopenta[f]indazol-5-yl]ethyl}phenyl)propanamide]
Emax (A549, A549 cells): 28% | pEC50 (A549 cells): 6.91

CC[C@]12Cc3cnn(-c4cccc(F)c4)c3C=C1CC[C@@]2(O)CCc1cccc(F)c1C(N)=O [Example 12, 2-{2-[(4aS,5R)-4a-Ethyl-1-(3-fluorophenyl)-5-hydroxy-1,4,4a,5,6,7-hexahydrocyclopenta[f]indazol-5-yl]ethyl}-6-fluorobenzamide]
Emax (A549, A549 cells): 58% | pEC50 (A549 cells): 7.64

NC(=O)c1ccccc1CC[C@]1(O)CCC2=Cc3c(cnn3-c3ccc(F)cc3)C[C@@]21C1CC1 [Example 23, 2-{2-[(4aR,5R)-4a-Cyclopropyl-1-(4-fluorophenyl)-5-hydroxy-1,4,4a,5,6,7-hexahydrocyclopenta[f]indazol-5-yl]ethyl}benzamide]
Emax (A549, A549 cells): 21% | pEC50 (A549 cells): 7.43

CC[C@]12Cc3cnn(-c4ccc(F)cc4)c3C=C1CC[C@@]2(O)CC(O)c1c(F)ccnc1Cl (stereo partly drawn) [Example 74, (4aS,5R)-5-[2-(2-Chloro-4-fluoropyridin-3-yl)-2-hydroxyethyl]-4a-ethyl-1-(4-fluorophenyl)-1,4,4a,5,6,7-hexahydrocyclopenta[f]indazol-5-ol]
Emax (A549, A549 cells): 41% | pEC50 (A549 cells): 7.19

CC[C@]12Cc3cnn(-c4ccc(F)cc4)c3C=C1CC[C@@]2(O)CCc1ncccc1S(=O)(=O)C(C)C [Example 62, (4aS,5R)-4a-Ethyl-1-(4-fluorophenyl)-5-{2-[3-(propan-2-ylsulfonyl)pyridin-2-yl]ethyl}-1,4,4a,5,6,7-hexahydrocyclopenta[f]indazol-5-ol]
Emax (A549, A549 cells): 43% | pEC50 (A549 cells): 7.46

CC(C)(CO)NC(=O)c1cc(F)cnc1CC[C@]1(O)CCC2=Cc3c(cnn3-c3ccc(F)cc3)C[C@@]21C1CC1 [Example 48, 2-{2-[(4aR,5R)-4a-Cyclopropyl-1-(4-fluorophenyl)-5-hydroxy-1,4,4a,5,6,7-hexahydrocyclopenta[f]indazol-5-yl]ethyl}-5-fluoro-N-(1-hydroxy-2-methylpropan-2-yl)pyridine-3-carboxamide]
Emax (A549, A549 cells): 50% | pEC50 (A549 cells): 7.59

NC(=O)Cc1ccccc1CC[C@]1(O)CCC2=Cc3c(cnn3-c3ccc(F)cc3)C[C@@]21C1CC1 [Example 56, 2-(2-{2-[(4aR,5S)-4a-Cyclopropyl-1-(4-fluorophenyl)-5-hydroxy-1,4,4a,5,6,7-hexahydrocyclopenta[f]indazol-5-yl]ethyl}phenyl)acetamide]
Emax (A549, A549 cells): 9% | pEC50 (A549 cells): 7.85

CC[C@]12Cc3cnn(-c4ccc(F)cc4)c3C=C1CC[C@@]2(O)CCc1cc(F)ccn1 [Example 18, (4aS,5R)-4a-Ethyl-1-(4-fluorophenyl)-5-[2-(4-fluoropyridin-2-yl)ethyl]-1,4,4a,5,6,7-hexahydrocyclopenta[f]indazol-5-ol]
Emax (A549, A549 cells): 32% | pEC50 (A549 cells): 7.28

CC[C@]12Cc3cnn(-c4cccnc4)c3C=C1CC[C@@]2(O)CCc1cccc(F)c1C#N [Example 10, 2-{2-[(4aS,5R)-4a-Ethyl-5-hydroxy-1-(pyridin-3-yl)-1,4,4a,5,6,7-hexahydrocyclopenta[f]indazol-5-yl]ethyl}-6-fluorobenzonitrile]
Emax (A549, A549 cells): 20% | pEC50 (A549 cells): 6.94

CC[C@]12Cc3cnn(-c4ccc(F)cc4)c3C=C1CC[C@@]2(O)CCc1cccc(F)c1CC(N)=O [Example 60, 2-(2-{2-[(4aS,5R)-4a-Ethyl-1-(4-fluorophenyl)-5-hydroxy-1,4,4a,5,6,7-hexahydrocyclopenta[f]indazol-5-yl]ethyl}-6-fluorophenyl)acetamide]
Emax (A549, A549 cells): 39% | pEC50 (A549 cells): 7.42

NC(=O)c1ccccc1CC[C@]1(O)CCC2=Cc3c(cnn3-c3cccc(F)c3)C[C@@]21C1CC1 [Example 7, 2-{2-[(4aR,5R)-4a-Cyclopropyl-1-(3-fluorophenyl)-5-hydroxy-1,4,4a,5,6,7-hexahydrocyclopenta[f]indazol-5-yl]ethyl}benzamide]
Emax (A549, A549 cells): 7% | pEC50 (A549 cells): 6.84

NC(=O)CNC(=O)c1cc(F)cnc1CC[C@]1(O)CCC2=Cc3c(cnn3-c3ccc(F)cc3)C[C@@]21C1CC1 [Example 44, N-(2-Amino-2-oxoethyl)-2-{2-[(4aR,5R)-4a-cyclopropyl-1-(4-fluorophenyl)-5-hydroxy-1,4,4a,5,6,7-hexahydrocyclopenta[f]indazol-5-yl]ethyl}-5-fluoropyridine-3-carboxamide]
Emax (A549, A549 cells): 39% | pEC50 (A549 cells): 6.81

CC[C@]12Cc3cnn(-c4ccccc4)c3C=C1CC[C@@]2(O)CCc1cccc(F)c1C#N [Example 15, 2-{2-[(4aS,5R)-4a-Ethyl-5-hydroxy-1-phenyl-1,4,4a,5,6,7-hexahydrocyclopenta[f]indazol-5-yl]ethyl}-6-fluorobenzonitrile]
Emax (A549, A549 cells): 29% | pEC50 (A549 cells): 7.21

COc1ccnc(CC[C@]2(O)CCC3=Cc4c(cnn4-c4ccc(F)cc4)C[C@@]32C2CC2)c1C(F)C(N)=O (stereo partly drawn) [Example 66, 2-(2-{2-[(4aR,5R)-4a-Cyclopropyl-1-(4-fluorophenyl)-5-hydroxy-1,4,4a,5,6,7-hexahydrocyclopenta[f]indazol-5-yl]ethyl}-4-methoxypyridin-3-yl)-2-fluoroacetamide]
Emax (A549 cells): 45% | pEC50 (A549 cells): 8.15

COc1cccc(CC[C@]2(O)CCC3=Cc4c(cnn4-c4ccc(F)cc4)C[C@@]32C2CC2)c1C(N)=O [Example 38, 2-{2-[(4aR,5R)-4a-Cyclopropyl-1-(4-fluorophenyl)-5-hydroxy-1,4,4a,5,6,7-hexahydrocyclopenta[f]indazol-5-yl]ethyl}-6-methoxybenzamide]
Emax (A549, A549 cells): 11% | pEC50 (A549 cells): 8.00

NC(=O)c1c(C2CC2)ccnc1CC[C@]1(O)CCC2=Cc3c(cnn3-c3ccc(F)cc3)C[C@@]21C1CC1 [Example 49, 4-Cyclopropyl-2-{2-[(4aR,5R)-4a-cyclopropyl-1-(4-fluorophenyl)-5-hydroxy-1,4,4a,5,6,7-hexahydrocyclopenta[f]indazol-5-yl]ethyl}pyridine-3-carboxamide]
Emax (A549, A549 cells): 30% | pEC50 (A549 cells): 8.05

CC[C@]12Cc3cnn(-c4ccc(F)cc4)c3C=C1CC[C@@]2(O)CCc1ncc(F)cc1C(N)=O [Example 53, 2-{2-[(4aS,5R)-4a-Ethyl-1-(4-fluorophenyl)-5-hydroxy-1,4,4a,5,6,7-hexahydrocyclopenta[f]indazol-5-yl]ethyl}-5-fluoropyridine-3-carboxamide]
Emax (A549, A549 cells): 49% | pEC50 (A549 cells): 7.11

CC[C@]12Cc3cnn(-c4ccc(F)cc4)c3C=C1CC[C@@]2(O)CCc1cncc(F)c1 [Example 21, (4aS,5R)-4a-Ethyl-1-(4-fluorophenyl)-5-[2-(5-fluoropyridin-3-yl)ethyl]-1,4,4a,5,6,7-hexahydrocyclopenta[f]indazol-5-ol]
Emax (A549, A549 cells): 31% | pEC50 (A549 cells): 7.12
